Results: patent publication US20120190752A1, “EXO-S-MECAMYLAMINE METHOD, USE, AND COMPOUND FOR TREATMENT” (Targacept Inc., priority 2009, published 2012)

Test system: subjects with major depressive disorder (MDD) who were inadequate responders to citalopram
Assay: SIS (Sheehan Irritability Scale), total and individual items, Phase 2b add-on trial
Format: in vivo, human
Design: SIS Adj. Mean change / SIS total score change Adjusted Mean / SIS Anger With Others change Adjusted Mean / SIS Anger With Self change Adjusted Mean / SIS Edginess change Adjusted Mean / SIS Irritability change Adjusted Mean / SIS Moodiness change Adjusted Mean / SIS Temper change Adjusted Mean: scale not given here
Conditions: for SIS Difference vs placebo / SIS Adj. Mean change: ITT; for SIS Difference vs placebo: Week 8 to Week 16 LOCF; for SIS Adj. Mean change: change from Week 8 (double-blind baseline) to Week 16 LOCF, add-on to citalopram
Experimental: In more detail, a multi-center double-blind, randomized, placebo-controlled, parallel group, flexible dose titration study of TC-5214 as adjunctive therapy in subjects with major depressive disorder (MDD) who were inadequate responders to citalopram was conducted in centers in the US and India. The study consisted of a screening period, baseline/washout period, open-label phase, double-blind phase, and a follow-up visit. Subject participation in the study could continue for up to 16 weeks of treatment. Following a washout period of up to 28 days for other antidepressants, subjects with MDD and a MADRS total score >/=28 and a Clinical Global Impression-Severity (CGI-S) score >/=4 were enrolled on Day 1 into an open-label citalopram-only phase of the study. This phase lasted 8 weeks, with citalopram (CIT) dose increased from a once-daily dose of 20 mg (Day 1 through Week 4) to 40 mg (Week 4 through Week 8). A total of 579 subjects entered the open-label citalopram phase. At Week 8, subjects who tolerated 40 mg CIT, but whose MADRS score was reduced <50% from baseline and no lower than 17, and CGI-S≧4, were considered inadequate responders. These subjects (n=270) were randomized in a double-blind fashion to receive either placebo or TC-5214-23 as add-on therapy to continued CIT. The double-blind phase of the study also lasted 8 weeks (Week 8 to Week 16). Study drug, TC-5214-23 or placebo, was started at 2 mg daily (1 mg twice per day [BID] dosing), added on to continuing CIT (40 mg PO qd). After 2 weeks of treatment, the dose of TC-5214 could be increased to 4 mg (2 mg BID) or continued unchanged, with up-titration based upon good tolerability and inadequate therapeutic response. After a further 2 weeks, the dose of TC-5214 could be increased again to 8 mg (4 mg BID) if judged appropriate by the investigator, based upon good tolerability and inadequate therapeutic response. At any time during the double-blind phase of the study, placebo or TC-5214-23 could be reduced to the previous dose level following the emergence of unacceptable adverse events (AEs). […] At this follow-up, any signs or symptoms of relapse were evaluated. If a subject was prematurely discontinued from the study between Week 8 and Week 16 for any reason, the investigator was to make every effort to perform all evaluations as per protocol, assuming the subject had reached the end of the double-blind add-on treatment phase. These evaluations were to be made as soon as possible and within 2 weeks of discontinuation. […] There was no meaningful difference in results as a function of age, gender, site, or smoking status. [table] With regard to efficacy endpoints, the following tables present efficacy used in the ITT (Intent-to-Treat) and PP (Per Protocol) populations unless otherwise specific. The primary inference was based upon Week 16 visit using the ITT population. Change from baseline was obtained by subtracting the baseline values from the individual on-treatment values. Change from Week 16 was obtained by subtracting the Week 16 values from the individual follow-up visit (Week 18/19) values. If either the baseline or Week 16 or on-treatment or follow-up value was missing, the change from baseline or Week 16 value was also set to missing. To account for missing data, the last observation carry forward (LOCF) method was used for the ITT and PP populations. Thus, the last available on-therapy observation for a subject, including the observation at premature discontinuation, was used to estimate subsequent missing data points. For efficacy, baseline data were collected at Week 8 in the double-blind augmentation phase electronic case report form pages. For SIS, the endpoint was the change from Week 8 (double-blind baseline) to Week 16 of the SIS. Changes were analyzed using ANCOVA. Each SIS item score was also analyzed using ANCOVA. […]

[1] = ITT Population, Double Blind Week 16 LOCF, change from Week 8 (double-blind baseline)
[2] = ITT Population, Double Blind Week 18 LOCF (Follow-up)
[3] = ITT and PP populations, result in words
[4] = PP Population, Double Blind Week 16 LOCF, change from Week 8 (double-blind baseline)
[5] = PP Population, Double Blind Week 18 LOCF (Follow-up)

CNC1(C)C2CCC(C2)C1(C)C (stereo in doubt) [TC-5214, (S)—N,2,3,3-tetramethylnorbornan-2-amine]
SIS total score change Adjusted Mean [1]: −18.21 | SIS total score change Mean Difference between TC-5214 and Placebo [1]: 8.76 | SIS total score change Adjusted Mean [2]: −0.68 | SIS total score change Mean Difference between TC-5214 and Placebo [2]: −0.51 | SIS total score change from baseline compared with placebo [3]: statistically significant decreases (improvements) | each SIS individual item change from baseline compared with placebo [3]: statistically significant decreases (improvements) | SIS Difference vs placebo: −8.54 (−11.65, −5.44) | SIS Difference vs placebo (listed as TC-5214 + CIT): −8.54 | SIS Adj. Mean change: −18.21 (1.12) | SIS Adj. Mean change (listed as TC-5214 + CIT): −18.21 | SIS total score change Adjusted Mean [4]: −19.96 | SIS total score change Mean Difference between TC-5214 and Placebo [4]: 10.04 | SIS total score change Adjusted Mean [5]: −0.77 | SIS total score change Mean Difference between TC-5214 and Placebo [5]: −0.34
